Measured values: paper PMC12595434, “Development of retinoid nuclear receptor pathway antagonists through targeting aldehyde dehydrogenase 1A3” (iScience, 2025)
Read-outs that look alike come from different tables or passages of the source.

Legend:
[1] = molecular target: T1, human ALDH1A2 (Homo sapiens, UniProt O94788); test: Recombinant enzyme activity assay; format: biochemical; conditions: for IC50: recombinant activity assay (Table 1), read-out: IC50 molecular, human ALDH1A2
T1 construct: made in house; host or cells: BL21-DE3 E. coli
T1 sequence (O94788 1-518): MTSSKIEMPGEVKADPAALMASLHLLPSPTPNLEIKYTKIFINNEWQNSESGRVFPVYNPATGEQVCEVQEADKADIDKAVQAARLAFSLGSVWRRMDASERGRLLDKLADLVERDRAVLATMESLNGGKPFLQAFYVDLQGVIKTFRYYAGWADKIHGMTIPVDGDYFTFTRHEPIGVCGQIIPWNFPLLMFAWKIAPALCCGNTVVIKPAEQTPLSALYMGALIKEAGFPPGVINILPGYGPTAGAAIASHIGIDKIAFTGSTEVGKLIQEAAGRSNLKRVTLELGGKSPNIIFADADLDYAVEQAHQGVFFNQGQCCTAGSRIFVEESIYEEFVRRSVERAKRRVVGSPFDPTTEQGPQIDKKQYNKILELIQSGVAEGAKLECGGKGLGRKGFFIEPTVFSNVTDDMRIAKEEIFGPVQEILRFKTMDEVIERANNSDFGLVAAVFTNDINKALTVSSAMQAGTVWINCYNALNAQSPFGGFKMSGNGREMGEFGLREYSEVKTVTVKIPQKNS

[2] = molecular target: T2, human ALDH2 (Homo sapiens, UniProt P05091); test: Recombinant enzyme activity assay; format: biochemical; conditions: dose titration
T2 construct: made in house; host or cells: BL21-DE3 E. coli

[3] = molecular target: T3, mouse ALDH1A3 (Mus musculus, UniProt Q9JHW9); test: Recombinant enzyme activity assay; format: biochemical
T3 construct: made in house; host or cells: BL21-DE3 E. coli
T3 sequence (Q9JHW9 1-512): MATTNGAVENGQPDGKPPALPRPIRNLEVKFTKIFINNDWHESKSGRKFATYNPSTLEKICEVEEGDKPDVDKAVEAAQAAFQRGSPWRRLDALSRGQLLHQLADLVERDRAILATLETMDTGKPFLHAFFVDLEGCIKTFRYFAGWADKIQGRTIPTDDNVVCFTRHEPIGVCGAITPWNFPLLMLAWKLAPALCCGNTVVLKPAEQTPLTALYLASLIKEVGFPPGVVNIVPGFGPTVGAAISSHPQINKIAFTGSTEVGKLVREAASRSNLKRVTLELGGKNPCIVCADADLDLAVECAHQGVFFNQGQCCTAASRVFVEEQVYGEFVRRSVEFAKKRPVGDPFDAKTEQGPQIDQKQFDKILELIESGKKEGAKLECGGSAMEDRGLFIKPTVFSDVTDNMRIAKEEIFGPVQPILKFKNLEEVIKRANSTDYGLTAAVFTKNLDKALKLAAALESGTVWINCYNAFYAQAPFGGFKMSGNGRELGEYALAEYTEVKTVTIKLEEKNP

[4] = molecular target: T4, mouse ALDH1A2 (Mus musculus, UniProt Q62148); test: Recombinant enzyme activity assay; format: biochemical; conditions: recombinant activity assay (Table 1); read-out: IC50 molecular, mouse ALDH1A2
T4 construct: made in house; host or cells: BL21-DE3 E. coli

[5] = molecular target: T5, human ALDH1A3 in A375 cells (Homo sapiens, UniProt P47895); test: Aldefluor assay in A375 cells; format: cell-based; conditions: for Aldefluor activity at 100 nM (in words): A375 cells; for EC50: Aldefluor in A375 cells, read-out: EC50 cellular, human ALDH1A3
T5 construct: the cell lines with high endogenous ALDH1A3 activity: MDA-MB-468 (triple-negative breast cancer), A375 (melanoma), and LN229 (glioblastoma); endogenous in cells; host or cells: A375
T5 sequence (P47895 1-512): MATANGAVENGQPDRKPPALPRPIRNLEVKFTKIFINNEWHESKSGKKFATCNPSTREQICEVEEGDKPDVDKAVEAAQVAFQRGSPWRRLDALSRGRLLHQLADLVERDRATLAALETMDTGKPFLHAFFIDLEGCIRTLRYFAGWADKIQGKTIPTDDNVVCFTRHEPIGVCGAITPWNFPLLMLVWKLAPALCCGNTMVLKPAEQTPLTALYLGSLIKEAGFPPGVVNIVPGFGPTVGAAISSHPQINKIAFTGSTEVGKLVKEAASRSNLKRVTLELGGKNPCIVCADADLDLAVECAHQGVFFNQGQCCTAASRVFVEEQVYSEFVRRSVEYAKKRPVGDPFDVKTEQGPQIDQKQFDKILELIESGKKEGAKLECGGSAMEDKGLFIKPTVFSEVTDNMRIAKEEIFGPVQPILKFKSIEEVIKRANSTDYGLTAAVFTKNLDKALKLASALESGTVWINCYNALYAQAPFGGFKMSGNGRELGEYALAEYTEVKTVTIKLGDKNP

[6] = Protein binding (human); format: in vitro ADME; conditions: plasma
Source text: Table 1 Physiochemical, biochemical, and metabolic profile of lead compounds MBE1 and MBE1.5 | column: MBE1; MBE1.5

T2 sequence (P05091 18-517): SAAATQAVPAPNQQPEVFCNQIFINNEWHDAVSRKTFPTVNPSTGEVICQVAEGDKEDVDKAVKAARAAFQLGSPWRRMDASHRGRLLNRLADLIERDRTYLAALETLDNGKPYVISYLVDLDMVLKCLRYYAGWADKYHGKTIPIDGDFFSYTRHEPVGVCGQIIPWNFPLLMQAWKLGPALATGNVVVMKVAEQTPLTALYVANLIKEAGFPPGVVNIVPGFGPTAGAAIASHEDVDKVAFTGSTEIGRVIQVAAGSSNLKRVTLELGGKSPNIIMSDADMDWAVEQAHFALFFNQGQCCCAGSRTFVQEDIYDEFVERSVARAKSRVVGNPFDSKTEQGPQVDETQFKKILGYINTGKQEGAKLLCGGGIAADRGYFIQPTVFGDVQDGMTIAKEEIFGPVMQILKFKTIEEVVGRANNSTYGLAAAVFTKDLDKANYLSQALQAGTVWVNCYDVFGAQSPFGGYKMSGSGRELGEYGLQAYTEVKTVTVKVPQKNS
T4 sequence (Q62148 whole entry): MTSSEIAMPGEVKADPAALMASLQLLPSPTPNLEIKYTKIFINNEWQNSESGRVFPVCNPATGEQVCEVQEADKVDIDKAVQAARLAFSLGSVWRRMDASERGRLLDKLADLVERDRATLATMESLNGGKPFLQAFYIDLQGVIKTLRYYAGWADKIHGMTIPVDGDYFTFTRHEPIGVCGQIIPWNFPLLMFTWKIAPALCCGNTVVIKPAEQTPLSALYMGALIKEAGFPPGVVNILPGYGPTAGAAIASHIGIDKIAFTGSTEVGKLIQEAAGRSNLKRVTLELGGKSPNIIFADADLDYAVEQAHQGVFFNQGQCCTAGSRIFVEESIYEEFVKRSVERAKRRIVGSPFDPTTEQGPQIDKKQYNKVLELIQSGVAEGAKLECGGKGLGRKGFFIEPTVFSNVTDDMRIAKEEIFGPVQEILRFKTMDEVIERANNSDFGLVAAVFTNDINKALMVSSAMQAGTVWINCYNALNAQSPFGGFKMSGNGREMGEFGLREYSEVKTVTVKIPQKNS

inhibitory activity against ALDH1A2 (in words) ([1]; dose titration, up to 10 μM) | IC50 ([3]; recombinant activity assay (Table 1), read-out: IC50 molecular, mouse ALDH1A3) [nM] | SMILES | fold lower affinity for ALDH1A2 than for ALDH1A3 ([1]; biochemical inhibition of each isoform) [fold] | IC50 [1] [nM] | inhibitory activity against ALDH2 (in words) [2] | IC50 ([3]; dose titration, substrate competition assay, recombinant mouse ALDH1A3, 4-parameter equation, read-out: muALDH1A3 IC50) [nM] | IC50 [4] [nM] | Aldefluor activity at 100 nM (in words) [5] | EC50 [5] [nM] | fraction unbound [6]
– | – | CCc1cnccc1C(=O)Nc1cc2c(cc1F)NC(=O)CC2 [MBE1, 3-ethyl-N-(7-fluoro-2-oxo-3,4-dihydro-1H-quinolin-6-yl)pyridine-4-carboxamide] | 4 | 3330 | no inhibition | 209 | 3330 | highest activity | 5.1 | 0.527
minimal inhibition | 149 | CCc1ccccc1C(=O)Nc1cc2c(cc1F)NC(=O)CC2 [MBE1.5, 2-ethyl-N-(7-fluoro-2-oxo-3,4-dihydro-1H-quinolin-6-yl)benzamide] | – | 5000 | no inhibition | – | 4000 | highest activity | 1.9 | 0.137
